Here are results for 10 compounds from patent publication US20210101874A1, “MICROBIOCIDAL OXADIAZOLE DERIVATIVES” (SYNGENTA PARTICIPATIONS AG, priority 2017, published 2021).

For data set [1], the system named is Puccinia recondita f. sp. Tritici. Nature of the data set: Puccinia recondita f. sp. tritici / wheat / leaf disc preventative (brown rust). It counts as in vivo. The settings on record: foliar, 200 ppm in the applied formulation, wheat leaf segments cv. Kanzler, inoculated 1 day after application, compared to untreated, assessed 7 to 9 days after application, read-out: disease control. In a few lines: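 Preventative leaf-segment test: compound at 200 ppm applied by spray to Kanzler wheat, with spore inoculation following after one day. Disease control relative to untreated check read 7 to 9 days post-application, incubation at 19° C., 75% relative humidity, 12 h light/12 h dark.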

For data set [2], the system named is Glomerella lagenarium (Colletotrichum lagenarium). The data set is described as follows: Glomerella lagenarium (Colletotrichum lagenarium) liquid culture / cucumber / preventative (anthracnose). It counts as cell-based. The settings on record: Colletotrichum orbiculare; 20 ppm in the applied formulation; conidia in PDB nutrient broth, 24° C.; 3 to 4 days after application; compared to untreated; read-out: disease control (inhibition of growth measured photometrically). In a few lines: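 Cryostored conidia in potato dextrose broth added to compound diluted from DMSO solution, 96-well format. Plates incubated at 24 °C. Growth inhibition read photometrically 3 to 4 days after application, as percent activity versus untreated check.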

Data set [3] relates to Phakopsora pachyrhizi. Nature of the data set: Phakopsora pachyrhizi / soybean / leaf disc preventative (Asian soybean rust). It counts as in vivo. The note with it: foliar, 200 ppm in the applied formulation, soybean leaf disks, inoculated one day after application, compared to untreated, assessed 12 to 14 days after application, read-out: disease control. How it is done:
Leaf disks or leaf segments of various plant species are cut from plants grown in a greenhouse. The cut leaf disks or segments are placed in multiwell plates (24-well format) onto water agar. The leaf disks are sprayed with a test solution before (preventative) or after (curative) inoculation. Compounds to be tested are prepared as DMSO solutions (max. 10 mg/ml) which are diluted to the appropriate concentration with 0.025% Tween20 just before spraying. The inoculated leaf disks or segments are incubated under defined conditions (temperature, relative humidity, light, etc.) according to the respective test system. A single evaluation of disease level is carried out 3 to 14 days after inoculation, depending on the pathosystem. Percent disease control relative to the untreated check leaf disks or segments is then calculated.
Soybean leaf disks are placed on water agar in multiwell plates (24-well format) and sprayed with the formulated test compound diluted in water. One day after application leaf discs are inoculated by spraying a spore suspension on the lower leaf surface. After an incubation period in a climate cabinet of 24-36 hours in darkness at 20° C. and 75% rh leaf disc are kept at 20° C. with 12 h light/day and 75% rh. The activity of a compound is assessed as percent disease control compared to untreated when an appropriate level of disease damage appears in untreated check leaf disks (12 to 14 days after application).
The following compounds at 200 ppm in the applied formulation give at least 80% disease control in this test when compared to untreated control leaf disks under the same conditions, which show extensive disease development.

In data set [4] the test system is Puccinia recondita f. sp. Tritici. The data set is described as follows: Puccinia recondita f. sp. tritici / wheat / leaf disc curative (brown rust). The data set is classed as in vivo. The note with it: foliar, 200 ppm in the applied formulation, wheat leaf segments cv. Kanzler, applied 1 day after inoculation, compared to untreated, assessed 6 to 8 days after application, read-out: disease control. An outline of the steps:
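Curative test: wheat leaf segments cv. Kanzler on agar inoculated with spore suspension, kept dark at 19 °C/75% RH, then sprayed 1 day post-inoculation with compound diluted in water. Incubated at 19 °C, 75% RH, 12 h light/dark; percent disease control versus untreated scored 6–8 days after application.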

In general, inhibition refers to the percentage by which the read-out fell short of the control. For orientation: melting point means the temperature, or range, at which the solid turns liquid. For the compound `O=S(=O)(C1CC1)N(Cc1ccc(-c2noc(C(F)(F)F)n2)cc1)C1CC1` [Compound 1.2, N-cyclopropyl-N-[[4-[5-(trifluoromethyl)-1,2,4-oxadiazol-3-yl]phenyl]methyl] cyclopropanesulfonamide], the melting point was 90 to 92 °C. For the same compound, the pest or weed control at 200 ppm in data set [1] was at least 80%. For the same compound, the inhibition at 20 ppm in data set [2] is at least 80%. Also, the pest or weed control at 200 ppm in data set [3] is at least 80%.
As to `CCCNS(=O)(=O)N(C)Cc1ccc(-c2noc(C(F)(F)F)n2)cc1` [Compound 1.23, 3-[4-[[methyl (propylsulfamoyl)amino]methyl]phenyl]-5-(trifluoromethyl)-1,2,4-oxadiazole], the pest or weed control at 200 ppm in data set [1], in data set [4] and in data set [3] was at least 80% in each case. Moreover, the inhibition at 20 ppm in data set [2] was at least 80%.
On to `CON(Cc1ccc(-c2noc(C(F)(F)F)n2)c(F)c1)S(C)(=O)=O` [Compound 1.101, N-[[3-fluoro-4-[5-(trifluoromethyl)-1,2,4-oxadiazol-3-yl]phenyl]methyl]-N-methoxy-methanesulfonamide], for which the pest or weed control at 200 ppm in data set [4] and in data set [3] was at least 80% throughout. Also, the inhibition at 20 ppm in data set [2] was at least 80%.
On to `CCN(Cc1ccc(-c2noc(C(F)(F)F)n2)c(F)c1)S(C)(=O)=O` [Compound 1.102, N-ethyl-N-[[3-fluoro-4-[5-(trifluoromethyl)-1,2,4-oxadiazol-3-yl]phenyl]methyl] methanesulfonamide], for which the pest or weed control at 200 ppm in data set [1], in data set [4] and in data set [3] was at least 80% each time. In addition, the inhibition at 20 ppm in data set [2] is at least 80%.
As to `CCCS(=O)(=O)Nc1ccc(-c2noc(C(F)(F)F)n2)cc1` [Compound 2.38, N-[4-[5-(trifluoromethyl)-1,2,4-oxadiazol-3-yl]phenyl]propane-1-sulfonamide], the melting point was in the range of 65 to 75 °C. For the same compound, in data set [2], the inhibition at 20 ppm is at least 80%. Besides, the pest or weed control at 200 ppm in data set [3] is at least 80%.
`O=S(=O)(NCc1ccc(-c2noc(C(F)(F)F)n2)cc1)c1ccccc1F` [Compound 3.7, 2-fluoro-N-[[4-[5-(trifluoromethyl)-1,2,4-oxadiazol-3-yl]phenyl]methyl] benzenesulfonamide] yielded a melting point of 120 to 123 °C. In addition, in data set [1], the pest or weed control at 200 ppm is at least 80%. In addition, the inhibition at 20 ppm in data set [2] was at least 80%. Besides, the pest or weed control at 200 ppm in data set [3] was at least 80%.
In turn, `O=S(=O)(Nc1ccc(-c2noc(C(F)(F)F)n2)cc1)C1CC1` [Compound 3.33, N-[4-[5-(trifluoromethyl)-1,2,4-oxadiazol-3-yl]phenyl]cyclo-propanesulfonamide] yielded a melting point of 130 to 140 °C. Also, the pest or weed control at 200 ppm in data set [1] was at least 80%. Also, the inhibition at 20 ppm in data set [2] was at least 80%. The pest or weed control at 200 ppm in data set [3] is at least 80%.
For `O=S(=O)(Nc1ccc(-c2noc(C(F)(F)F)n2)cc1)c1ccccc1` [Compound 3.35, N-[4-[5-(trifluoromethyl)-1,2,4-oxadiazol-3-yl]phenyl]benzene-sulfonamide], the melting point was in the range of 115 to 130 °C. In addition, the pest or weed control at 200 ppm in data set [1] is at least 80%. In addition, the inhibition at 20 ppm in data set [2] is at least 80%. Besides, the pest or weed control at 200 ppm in data set [3] was at least 80%.
Consider `CCN(C(C)c1ccc(-c2noc(C(F)(F)F)n2)cc1)S(C)(=O)=O` (stereo not shown) [Compound 4.1, N-ethyl-N-[1-[4-[5-(trifluoromethyl)-1,2,4-oxadiazol-3-yl]phenyl]ethyl] methanesulfonamide], for which the pest or weed control at 200 ppm in data set [1], in data set [4] and in data set [3] was at least 80% in each case. In data set [2], the inhibition at 20 ppm was at least 80%.
With `CON(C(C)Cc1ccc(-c2noc(C(F)(F)F)n2)cc1)S(C)(=O)=O` (stereo not shown) [Compound 4.2, N-methoxy-N-[1-methyl-2-[4-[5-(trifluoromethyl)-1,2,4-oxadiazol-3-yl]phenyl]ethyl] methanesulfonamide], the pest or weed control at 200 ppm in data set [1] and in data set [3] was at least 80% in each case. For the same compound, in data set [2], the inhibition at 20 ppm is at least 80%.
